Consider ten molecules from ChEMBL document CHEMBL1201862, “PubChem BioAssay data set” (2004).

Test [1] addresses T1, Bcl-2-related protein A1 (Mus musculus, UniProt Q07440).
T1 sequence (Q07440 whole entry): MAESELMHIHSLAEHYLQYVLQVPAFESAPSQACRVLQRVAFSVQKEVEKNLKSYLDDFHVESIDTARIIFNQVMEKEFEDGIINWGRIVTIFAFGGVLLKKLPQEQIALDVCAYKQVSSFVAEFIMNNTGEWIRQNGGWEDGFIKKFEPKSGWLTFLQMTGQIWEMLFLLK
It is filed as functional.

Test [2] deals with T2, Ubiquitin-conjugating enzyme E2 N (Homo sapiens, UniProt P61088).
T2 sequence (P61088 whole entry): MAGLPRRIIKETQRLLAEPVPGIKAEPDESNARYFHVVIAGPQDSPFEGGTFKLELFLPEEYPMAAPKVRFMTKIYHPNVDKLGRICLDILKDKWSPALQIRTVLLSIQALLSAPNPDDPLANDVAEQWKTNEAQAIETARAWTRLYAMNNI
It is filed as functional.

In test [3] the target is T2, Ubiquitin-conjugating enzyme E2 N. The format is functional. This is another data set of the same source.
Test [4] concerns the target T3, Tyrosine-protein phosphatase non-receptor type 22 (Homo sapiens, UniProt Q9Y2R2).
T3 sequence (Q9Y2R2 whole entry): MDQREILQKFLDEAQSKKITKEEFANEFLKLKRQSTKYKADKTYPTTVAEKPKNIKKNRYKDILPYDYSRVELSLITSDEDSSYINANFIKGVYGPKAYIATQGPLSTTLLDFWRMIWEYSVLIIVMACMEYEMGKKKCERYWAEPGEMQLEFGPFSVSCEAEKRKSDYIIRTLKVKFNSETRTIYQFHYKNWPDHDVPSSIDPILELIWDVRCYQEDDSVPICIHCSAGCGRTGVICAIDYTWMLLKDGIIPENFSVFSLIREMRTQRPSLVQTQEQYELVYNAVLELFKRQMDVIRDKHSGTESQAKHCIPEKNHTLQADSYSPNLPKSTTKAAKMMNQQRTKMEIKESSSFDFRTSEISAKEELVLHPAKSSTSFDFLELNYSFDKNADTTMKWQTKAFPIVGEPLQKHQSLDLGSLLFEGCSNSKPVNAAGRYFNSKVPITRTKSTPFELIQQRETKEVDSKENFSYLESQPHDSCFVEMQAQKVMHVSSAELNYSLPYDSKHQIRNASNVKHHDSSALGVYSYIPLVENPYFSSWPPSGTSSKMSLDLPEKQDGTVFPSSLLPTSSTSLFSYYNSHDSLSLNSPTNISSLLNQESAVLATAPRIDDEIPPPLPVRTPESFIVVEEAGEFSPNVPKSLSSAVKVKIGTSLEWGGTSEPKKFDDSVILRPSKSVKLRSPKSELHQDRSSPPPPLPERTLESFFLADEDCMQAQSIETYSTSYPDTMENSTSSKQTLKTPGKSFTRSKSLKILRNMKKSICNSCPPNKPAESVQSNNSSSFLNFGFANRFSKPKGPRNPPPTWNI
It is filed as functional.

Test [5] concerns the target T3, Tyrosine-protein phosphatase non-receptor type 22. It is filed as functional. This is another data set of the same source.
For test [6], the target named is T4, Tyrosine-protein phosphatase non-receptor type 7 (Homo sapiens, UniProt P35236).
T4 sequence (P35236 whole entry): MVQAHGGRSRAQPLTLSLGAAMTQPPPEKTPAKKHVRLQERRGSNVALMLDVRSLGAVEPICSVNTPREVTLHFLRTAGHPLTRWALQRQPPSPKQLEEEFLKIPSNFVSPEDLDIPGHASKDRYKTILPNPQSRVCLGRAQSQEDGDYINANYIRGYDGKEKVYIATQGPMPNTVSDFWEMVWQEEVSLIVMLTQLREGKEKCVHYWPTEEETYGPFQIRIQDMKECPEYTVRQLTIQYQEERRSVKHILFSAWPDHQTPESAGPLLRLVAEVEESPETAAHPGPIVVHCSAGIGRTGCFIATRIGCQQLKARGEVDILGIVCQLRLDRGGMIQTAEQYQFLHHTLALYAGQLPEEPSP
It is filed as functional.

Test [7] in a line: Luminescence Cell-Based Dose Retest to Confirm Inhibitors of Cancer Stem Cells. [Related pubchem assays (depositor defined):AID2717, AID2721]. The following applies: Homo sapiens. The format is functional.
Test [8] is described as follows: cytotoxicity in HMLE control line with eGFP shRNA, dose response, counter-screen for HMLE_sh_ECad selective toxicity project, cell-based, HMLE_sh_eGFP, luminescence (AID 463074).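 Also: HMLE human mammary epithelial cells expressing control shRNA against eGFP.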 The format is functional, Homo sapiens.
In test [9] the target is T5, Short transient receptor potential channel 4 (Mus musculus, UniProt Q9QUQ5).
T5 sequence (Q9QUQ5 whole entry): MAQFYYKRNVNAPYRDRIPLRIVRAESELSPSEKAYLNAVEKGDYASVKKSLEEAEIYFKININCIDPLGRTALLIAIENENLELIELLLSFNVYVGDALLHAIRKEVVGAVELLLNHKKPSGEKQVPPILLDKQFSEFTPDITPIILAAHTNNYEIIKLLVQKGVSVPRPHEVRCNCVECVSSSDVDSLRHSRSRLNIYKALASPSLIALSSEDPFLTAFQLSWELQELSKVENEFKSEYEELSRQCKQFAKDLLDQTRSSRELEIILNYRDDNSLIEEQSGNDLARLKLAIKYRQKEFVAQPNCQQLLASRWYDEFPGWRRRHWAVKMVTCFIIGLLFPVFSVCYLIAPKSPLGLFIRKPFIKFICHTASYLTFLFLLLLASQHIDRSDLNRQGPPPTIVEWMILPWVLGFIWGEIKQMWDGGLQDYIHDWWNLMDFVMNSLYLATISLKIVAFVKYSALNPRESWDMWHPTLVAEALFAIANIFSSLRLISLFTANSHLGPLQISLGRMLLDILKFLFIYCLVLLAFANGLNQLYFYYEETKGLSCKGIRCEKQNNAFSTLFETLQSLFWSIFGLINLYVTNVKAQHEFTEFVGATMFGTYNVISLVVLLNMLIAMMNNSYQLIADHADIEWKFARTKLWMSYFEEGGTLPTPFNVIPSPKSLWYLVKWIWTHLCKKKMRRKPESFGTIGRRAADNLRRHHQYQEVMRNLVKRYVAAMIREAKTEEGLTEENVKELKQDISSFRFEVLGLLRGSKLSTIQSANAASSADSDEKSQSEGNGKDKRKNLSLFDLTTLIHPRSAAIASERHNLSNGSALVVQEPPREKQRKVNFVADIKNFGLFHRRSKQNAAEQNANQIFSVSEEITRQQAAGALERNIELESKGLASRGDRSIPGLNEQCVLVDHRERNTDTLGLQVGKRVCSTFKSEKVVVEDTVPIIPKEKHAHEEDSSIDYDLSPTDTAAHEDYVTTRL
Kind of test: mouse TRPC4 channel activators, dose response, cell-based, HEK293 TRPC4/mu-opioid, Fluo-4 calcium (AID 434937). The format is functional.

The target in test [10] is Beta-galactosidase (Escherichia coli, UniProt Q8VNN2). It is filed as functional.
Test [11] deals with T6, Delta-type opioid receptor (Homo sapiens, UniProt P41143). Kind of test: HTS Image-Based Screen for Antagonists of the DOR Receptor. [Related pubchem assays (depositor defined):AID1777, AID1785, AID1786, AID2133]. The format is functional.
Test [12] addresses T6, Delta-type opioid receptor. Kind of test: HTS Image-Based Screen for Agonists of the DOR Receptor. [Related pubchem assays (depositor defined):AID1777, AID1786, AID2133]. The format is functional.
Test [13] deals with Vero. Kind of test: cells. The format is functional. The following applies: Chlorocebus sabaeus.
Test [14] concerns the target Mu-type opioid receptor (Homo sapiens, UniProt P35372). Kind of test: HTS Image-Based Screen for Agonists of the MOR Receptor. [Related pubchem assays (depositor defined):AID1777, AID1785, AID1786, AID2133]. The format is functional.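 Also: imaging of beta-arrestin GFP recruitment into spots after receptor activation.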
Test [15] deals with T7, RNA-editing ligase 1, mitochondrial (Trypanosoma brucei brucei, UniProt P86926).
T7 sequence (P86926 whole entry): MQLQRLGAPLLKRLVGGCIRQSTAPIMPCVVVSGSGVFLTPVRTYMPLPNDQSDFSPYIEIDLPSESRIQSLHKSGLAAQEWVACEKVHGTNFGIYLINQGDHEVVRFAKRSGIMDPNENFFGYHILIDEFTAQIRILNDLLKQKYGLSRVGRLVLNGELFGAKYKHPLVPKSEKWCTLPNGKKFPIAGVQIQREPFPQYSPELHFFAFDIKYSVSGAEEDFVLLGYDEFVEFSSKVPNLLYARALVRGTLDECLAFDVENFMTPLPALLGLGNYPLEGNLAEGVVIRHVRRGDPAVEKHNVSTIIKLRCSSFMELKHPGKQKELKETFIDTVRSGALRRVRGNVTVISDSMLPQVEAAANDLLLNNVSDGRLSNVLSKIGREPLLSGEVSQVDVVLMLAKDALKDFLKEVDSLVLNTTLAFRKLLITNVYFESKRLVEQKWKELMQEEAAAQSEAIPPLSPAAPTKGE
Kind of test: TbREL1 ligase inhibitors, dose response, biochemical, fluorescence, Trypanosoma brucei (AID 1117295). The format is functional.

Test [16] addresses T8, Kappa-type opioid receptor (Homo sapiens, UniProt P41145). It is filed as functional.
Test [17] addresses T8, Kappa-type opioid receptor. The format is functional. This is another data set of the same source.
Test [18] addresses T9, G-protein coupled receptor 55 (Homo sapiens, UniProt Q9Y2T6). Kind of test: GPR55 antagonists, SAR follow-up, counter-screen for GPR35 antagonist project, imaging, image-based (AID 2397). It is filed as functional.
Test [19] deals with T10, Cannabinoid receptor 1 (Homo sapiens, UniProt P21554). Kind of test: SAR analysis of antagonists of the Cannabinoid Receptor 1 using an Image-Based Assay - Set 3. [Related pubchem assays (depositor defined):AID1961, AID1965]. The format is functional.
Test [20] addresses T11, G-protein coupled receptor 35 (Homo sapiens, UniProt Q9HC97). Kind of test: SAR analysis of Antagonists of the GPR35 Receptor using an Image-Based Assay - Set 4. [Related pubchem assays (depositor defined):[…]]. The format is functional.
In test [21] the target is T11, G-protein coupled receptor 35. Kind of test: SAR analysis of Agonists of the GPR35 Receptor using an Image-Based Assay - Set 3. [Related pubchem assays (depositor defined):AID1961, AID1965]. It is filed as functional.
The target of test [22] is T12, Cannabinoid receptor 2 (Homo sapiens, UniProt P34972). Kind of test: SAR analysis of agonists of the Cannabinoid Receptor 2 using an Image-Based Assay - Set 2. [Related pubchem assays (depositor defined):AID1961, AID1965]. It is filed as functional.
The target of test [23] is T12, Cannabinoid receptor 2. Kind of test: SAR analysis of antagonists of the Cannabinoid Receptor 2 using an Image-Based Assay - Set 2. [Related pubchem assays (depositor defined):AID1961, AID1965]. The format is functional.
Test [24] has as its target T10, Cannabinoid receptor 1. Kind of test: SAR analysis of agonists of the Cannabinoid Receptor 1 using an Image-Based Assay - Set 3. [Related pubchem assays (depositor defined):AID1961, AID1965]. The format is functional.
Test [25] addresses T9, G-protein coupled receptor 55. Kind of test: SAR analysis of selective Agonists of GPR55 using an Image-Based Assay - Set 2. [Related pubchem assays (depositor defined):AID1961, AID1965]. The format is functional.

Active and inactive are the calls of the source.

T12 sequence (P34972 whole entry): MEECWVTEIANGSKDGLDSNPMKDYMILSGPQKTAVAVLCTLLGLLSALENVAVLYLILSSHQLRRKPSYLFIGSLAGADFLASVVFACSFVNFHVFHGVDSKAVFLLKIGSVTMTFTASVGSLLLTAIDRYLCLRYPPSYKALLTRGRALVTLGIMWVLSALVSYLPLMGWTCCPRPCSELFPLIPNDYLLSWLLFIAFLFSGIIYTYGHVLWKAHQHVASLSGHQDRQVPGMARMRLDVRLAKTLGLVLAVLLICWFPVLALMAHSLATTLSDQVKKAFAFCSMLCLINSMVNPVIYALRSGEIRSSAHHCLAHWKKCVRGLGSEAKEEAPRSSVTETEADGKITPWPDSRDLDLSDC
T10 sequence (P21554 whole entry): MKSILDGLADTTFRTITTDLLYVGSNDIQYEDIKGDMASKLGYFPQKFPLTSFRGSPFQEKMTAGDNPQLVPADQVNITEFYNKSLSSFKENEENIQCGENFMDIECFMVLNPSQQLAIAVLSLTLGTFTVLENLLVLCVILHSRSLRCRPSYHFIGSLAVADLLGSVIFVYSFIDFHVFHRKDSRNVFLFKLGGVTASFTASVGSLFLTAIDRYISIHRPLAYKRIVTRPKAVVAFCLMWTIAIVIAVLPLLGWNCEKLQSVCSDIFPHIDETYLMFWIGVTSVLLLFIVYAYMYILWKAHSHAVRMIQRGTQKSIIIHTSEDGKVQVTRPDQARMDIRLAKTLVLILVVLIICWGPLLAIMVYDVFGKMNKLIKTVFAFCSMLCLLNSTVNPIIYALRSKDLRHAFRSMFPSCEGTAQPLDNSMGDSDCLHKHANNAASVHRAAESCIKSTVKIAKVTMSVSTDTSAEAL
T9 sequence (Q9Y2T6 whole entry): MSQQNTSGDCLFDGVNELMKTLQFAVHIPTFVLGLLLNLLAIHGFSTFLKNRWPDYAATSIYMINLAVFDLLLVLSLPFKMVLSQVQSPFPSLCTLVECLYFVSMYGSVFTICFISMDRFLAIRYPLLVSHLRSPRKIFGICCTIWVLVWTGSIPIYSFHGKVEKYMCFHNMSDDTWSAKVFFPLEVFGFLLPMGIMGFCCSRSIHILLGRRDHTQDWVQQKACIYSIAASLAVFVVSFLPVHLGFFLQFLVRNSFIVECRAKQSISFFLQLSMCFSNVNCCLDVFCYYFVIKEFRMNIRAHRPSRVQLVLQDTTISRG
T11 sequence (Q9HC97 whole entry): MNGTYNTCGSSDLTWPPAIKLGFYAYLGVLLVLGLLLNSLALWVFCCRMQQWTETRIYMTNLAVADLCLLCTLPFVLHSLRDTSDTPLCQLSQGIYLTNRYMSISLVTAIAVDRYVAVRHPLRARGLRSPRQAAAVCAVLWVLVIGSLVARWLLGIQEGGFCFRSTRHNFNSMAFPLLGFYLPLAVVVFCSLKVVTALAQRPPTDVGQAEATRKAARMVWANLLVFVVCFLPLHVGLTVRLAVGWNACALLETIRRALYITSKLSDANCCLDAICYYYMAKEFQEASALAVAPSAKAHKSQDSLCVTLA
T6 sequence (P41143 whole entry): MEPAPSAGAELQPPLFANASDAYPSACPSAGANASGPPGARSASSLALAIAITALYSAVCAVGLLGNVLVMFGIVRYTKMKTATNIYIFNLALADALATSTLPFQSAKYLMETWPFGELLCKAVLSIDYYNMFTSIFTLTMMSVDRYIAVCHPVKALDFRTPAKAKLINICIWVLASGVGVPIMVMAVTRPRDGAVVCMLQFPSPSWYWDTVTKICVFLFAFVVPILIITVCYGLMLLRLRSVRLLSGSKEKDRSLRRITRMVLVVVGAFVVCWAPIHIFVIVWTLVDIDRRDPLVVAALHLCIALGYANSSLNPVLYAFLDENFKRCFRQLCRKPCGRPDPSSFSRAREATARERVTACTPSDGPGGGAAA
T8 sequence (P41145 whole entry): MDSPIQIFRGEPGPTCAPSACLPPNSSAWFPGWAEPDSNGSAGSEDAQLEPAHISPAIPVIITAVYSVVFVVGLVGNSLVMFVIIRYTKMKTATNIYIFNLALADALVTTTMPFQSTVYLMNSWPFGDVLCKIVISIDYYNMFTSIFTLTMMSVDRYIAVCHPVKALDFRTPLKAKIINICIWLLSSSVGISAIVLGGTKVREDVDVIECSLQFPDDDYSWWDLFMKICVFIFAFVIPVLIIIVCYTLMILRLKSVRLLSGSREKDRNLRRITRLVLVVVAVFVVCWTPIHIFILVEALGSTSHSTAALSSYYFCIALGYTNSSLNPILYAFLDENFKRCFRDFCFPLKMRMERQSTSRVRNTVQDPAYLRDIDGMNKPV
Chain of Beta-galactosidase (Q8VNN2 whole entry): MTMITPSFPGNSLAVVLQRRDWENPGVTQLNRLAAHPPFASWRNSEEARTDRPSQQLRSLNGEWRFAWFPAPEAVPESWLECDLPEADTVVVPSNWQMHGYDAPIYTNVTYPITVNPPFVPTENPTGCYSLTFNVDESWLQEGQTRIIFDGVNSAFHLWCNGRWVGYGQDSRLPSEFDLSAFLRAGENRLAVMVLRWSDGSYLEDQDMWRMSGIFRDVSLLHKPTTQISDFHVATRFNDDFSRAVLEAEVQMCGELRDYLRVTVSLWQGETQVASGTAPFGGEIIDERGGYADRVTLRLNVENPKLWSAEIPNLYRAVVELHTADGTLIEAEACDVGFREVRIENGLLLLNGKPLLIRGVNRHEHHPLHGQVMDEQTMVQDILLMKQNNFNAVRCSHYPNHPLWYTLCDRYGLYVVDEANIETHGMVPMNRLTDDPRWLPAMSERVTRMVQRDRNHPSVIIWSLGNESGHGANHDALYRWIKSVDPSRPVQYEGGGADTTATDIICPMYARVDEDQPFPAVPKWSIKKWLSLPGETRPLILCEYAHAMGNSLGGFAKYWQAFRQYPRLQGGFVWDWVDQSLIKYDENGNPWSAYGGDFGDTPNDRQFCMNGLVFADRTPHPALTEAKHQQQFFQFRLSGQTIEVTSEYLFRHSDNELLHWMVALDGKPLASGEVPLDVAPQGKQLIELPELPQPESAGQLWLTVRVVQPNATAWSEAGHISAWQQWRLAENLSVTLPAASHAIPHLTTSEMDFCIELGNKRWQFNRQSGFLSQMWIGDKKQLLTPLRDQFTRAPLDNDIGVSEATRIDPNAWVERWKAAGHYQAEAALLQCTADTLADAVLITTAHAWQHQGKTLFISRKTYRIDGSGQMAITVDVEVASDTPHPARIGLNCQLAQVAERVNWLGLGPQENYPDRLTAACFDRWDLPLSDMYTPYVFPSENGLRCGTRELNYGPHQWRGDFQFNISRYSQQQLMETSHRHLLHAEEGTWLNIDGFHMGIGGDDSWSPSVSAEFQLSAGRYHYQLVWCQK
Chain of Mu-type opioid receptor (P35372 whole entry): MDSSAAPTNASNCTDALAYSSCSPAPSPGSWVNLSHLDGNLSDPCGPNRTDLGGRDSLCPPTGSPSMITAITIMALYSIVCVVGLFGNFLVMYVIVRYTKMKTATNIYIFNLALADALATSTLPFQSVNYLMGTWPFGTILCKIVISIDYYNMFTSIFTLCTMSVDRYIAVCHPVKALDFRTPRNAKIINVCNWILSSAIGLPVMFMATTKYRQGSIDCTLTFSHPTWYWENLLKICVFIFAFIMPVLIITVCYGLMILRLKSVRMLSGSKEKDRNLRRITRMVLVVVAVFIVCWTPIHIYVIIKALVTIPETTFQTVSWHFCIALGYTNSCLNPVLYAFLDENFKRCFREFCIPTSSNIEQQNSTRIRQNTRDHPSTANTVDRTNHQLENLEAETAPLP

In the case of `O=C(NNC(=O)c1nn(-c2ccc(F)cc2)ccc1=O)c1ccc(C(F)(F)F)cc1`, the IC50 in test [1] is > 20 µM (inactive); in test [2], 16.7 µM (active); in [3], 10.2 µM (active).

Regarding `O=C1OC(c2ccc(Br)cc2)=N/C1=C\c1ccco1`, the IC50 in test [4], in [5] and in test [6] was > 79.4 µM (inactive) each time.

Turning to `CN(C)/N=C/c1ccc(Sc2ccc([N+](=O)[O-])cc2[N+](=O)[O-])o1`, the AC50 in [7] is 22.5 µM (active); in test [8], 30.2 µM (active).

In the case of `O=C(NC1CCCN(Cc2ccc(Cl)cc2)C1)C1CCC1` (configuration not stated), the EC50 in test [9] is 1.33 µM (active).

For `COc1ccc(C[C@H]2CN3C(=NC[C@@H]3C(C)C)N2C[C@H](C)NC(=O)c2ccc(C)c(Br)c2)cc1`, the EC50 was > 31.5 µM (inactive) in test [10], > 32 µM (inactive) in test [12] and > 32 µM (inactive) in test [14]. Besides, the IC50 in test [11] is > 32 µM (inactive); in test [2] it was > 20 µM (inactive); in test [15], > 96.6 µM (inactive); in test [16], 2.07 µM; in test [17] it was 6.35 µM (active). The half-maximal cytotoxic concentration (CC50) in test [13] is 16.3 µM (active).

On to `Cc1ccc(-n2cc(CNCC3CC(=O)N(C4CC4)C3)c(-c3cccc(C)c3)n2)cc1` (configuration not stated), for which the half-maximal effective concentration (EC50) in test [9] was 6.68 µM (active).

For `Clc1ccccc1Cn1ncc2c(N3CCN(c4ccccc4)CC3)ncnc21`, the IC50 in test [18] was > 32 µM (inactive).

With `CN(C)S(=O)(=O)c1ccc(Cl)c(C(=O)N2CCN(c3ccc([N+](=O)[O-])cc3)CC2)c1`, the IC50 in [19], in test [20] and in test [23] was > 32 µM (inactive) each time. Besides, the EC50 was > 32 µM (inactive) in test [21], > 32 µM (inactive) in test [22], > 32 µM (inactive) in test [24] and 6.98 µM (active) in test [25].

As to `CC(C)Oc1ccc(S(=O)(=O)N2CCOCC2)cc1NC(=O)c1cc2c(s1)CCCCC2`, the IC50 in [19] was 27.5 µM (inactive); in test [20] it was > 32 µM (inactive); in test [23] it was > 32 µM (inactive). The EC50 in test [21], in test [22], in [24] and in [25] was > 32 µM (inactive) in each case.

With `COc1ccccc1NC(=O)c1cc(S(=O)(=O)N2CCCCCC2)ccc1F`, the figures for the IC50 in [1], in test [2] and in [3] were > 20 µM (inactive), 10.6 µM (active) and 9.99 µM (active), respectively.

Broadly, the IC50 is the concentration that inhibits the measured activity by half. The AC50 is the midpoint of the concentration-response curve, whichever way the signal moves. For orientation: EC50 means the concentration at which the effect is half-maximal. A word on the CC50: it is the concentration that lowers cell viability or growth by half.
